Measurements reported in ChEMBL document CHEMBL1201862, “PubChem BioAssay data set” (2004).
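Step 1: Grow cells in 96-well plates. Step 2: Expose to compound for 48 hours at 5 concentrations. Step 3: Interpolate endpoints linearly; if unreached, use highest concentration. GI50 = concentration required for 50% inhibition of growth.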 Active and inactive are the calls of the source. No stated cut-off is given here; in the data, active = GI50 up to about 1.1 µM and inactive = higher.

Assays:
Assay in all cases: NCI-60 cell line screen, 48 h
[1] = system: ACHN
[2] = system: SK-MEL-2
[3] = system: M14
[4] = system: MDA-MB-435
[5] = system: MCF7
[6] = system: A498
[7] = system: DU-145
[8] = system: NCI/ADR-RES
[9] = system: SK-MEL-28
[10] = system: PC-3
[11] = system: UO-31
[12] = system: MDA-MB-231
[13] = system: 786-0
[14] = system: HOP-62
[15] = system: HL-60
[16] = system: SK-MEL-5
[17] = system: SW-620
[18] = system: T47D
[19] = system: OVCAR-8
[20] = system: OVCAR-5
[21] = system: SF-268
[22] = system: SF-295
[23] = system: BT-549
[24] = system: SNB-75
[25] = system: NCI-H226
[26] = system: RXF 393
[27] = system: KM12
[28] = system: OVCAR-4
[29] = system: NCI-H23
[30] = system: K562
[31] = system: HT-29
[32] = system: RPMI-8226
[33] = system: NCI-H460
[34] = system: UACC-257
[35] = system: HOP-92
[36] = system: NCI-H522
[37] = system: MDA-N
[38] = system: TK-10
[39] = system: EKVX
[40] = system: HCT-15
[41] = system: A549
[42] = system: SR
[43] = system: Hs-578T
[44] = system: HCC 2998
[45] = system: U-251
[46] = system: SF-539
[47] = system: OVCAR-3
[48] = system: HCT-116
[49] = system: IGROV-1
[50] = system: MOLT-4
[51] = system: LOX IMVI
[52] = system: CAKI-1
[53] = system: SNB-19
[54] = system: UACC-62
[55] = system: SK-OV-3
[56] = system: Malme-3M
[57] = system: COLO 205
[58] = system: SN12C
[59] = system: CCRF-CEM

`C/C=C(\C)[C@@H](O)C(=O)O[C@@H]1CC(C(C)(C)O)[C@](C)(CCC(=O)OC)[C@H]2[C@H](OC(=O)[C@H](O)[C@H](C)CC)C[C@]3(C)C(=CC[C@H]3[C@H]3CO[C@H](C=C(C)C)C3)[C@]12C` (stereo not given in full) was tested, and the GI50 [1] was 18.1 µM (inactive), the GI50 [2] was 17.6 µM (inactive) and the GI50 [3] was 18.2 µM (inactive). For the same molecule, the GI50 [4] was 22.1 µM (inactive), the GI50 [5] was 19.3 µM (inactive) and the GI50 [6] was 22.4 µM (inactive). For the same molecule, the GI50 [7] was 29 µM (inactive), the GI50 [8] was 16.4 µM (inactive) and the GI50 [9] was 21.6 µM (inactive). For the same molecule, the GI50 [10] was 16.7 µM (inactive), the GI50 [11] was 17.7 µM (inactive) and the GI50 [12] was 19.6 µM (inactive). The GI50 [13] was 16 µM (inactive), the GI50 [14] was 35.3 µM (inactive) and the GI50 [15] was 16.7 µM (inactive). For the same molecule, the GI50 [16] was 17.4 µM (inactive), the GI50 [17] was 22.7 µM (inactive) and the GI50 [18] was 25.7 µM (inactive). For the same molecule, the GI50 [19] was 17.7 µM (inactive), the GI50 [20] was 20.5 µM (inactive) and the GI50 [21] was 18.5 µM (inactive). The GI50 [22] was 35.4 µM (inactive), the GI50 [23] was 18 µM (inactive) and the GI50 [24] was 15.4 µM (inactive). The GI50 [25] was 19.1 µM (inactive), the GI50 [26] was 16.4 µM (inactive) and the GI50 [27] was 24.8 µM (inactive). The GI50 [28] was 19.8 µM (inactive), the GI50 [29] was 18.4 µM (inactive) and the GI50 [30] was 17.8 µM (inactive). The GI50 [31] was 19 µM (inactive), the GI50 [32] was 15.3 µM (inactive) and the GI50 [33] was 18.5 µM (inactive). For the same molecule, the GI50 [34] was 20.7 µM (inactive), the GI50 [35] was 23.3 µM (inactive) and the GI50 [36] was 14.9 µM (inactive). The GI50 [37] was 20 µM (inactive), the GI50 [38] was 24.2 µM (inactive) and the GI50 [39] was 15.3 µM (inactive). For the same molecule, the GI50 [40] was 19 µM, the GI50 [41] was 20.9 µM (inactive) and the GI50 [42] was 14.5 µM (inactive). The GI50 [43] was 19.8 µM (inactive), the GI50 [44] was 16.2 µM (inactive) and the GI50 [45] was 18.8 µM (inactive). The GI50 [46] was 20.5 µM (inactive), the GI50 [47] was 20.1 µM (inactive) and the GI50 [48] was 18 µM (inactive). The GI50 [49] was 30.8 µM (inactive), the GI50 [50] was 19.7 µM (inactive) and the GI50 [51] was 17.6 µM (inactive). The GI50 [52] was 27.7 µM (inactive).

With `N#CC12C(=O)N3C(=NC(c4ccco4)NC3c3ccco3)C1(C#N)C(c1ccco1)NC1=C2CCCC1` (stereo not given) the GI50 [1] was > 100 µM (inactive), the GI50 [2] was > 100 µM (inactive) and the GI50 [3] was > 100 µM (inactive). For the same molecule, the GI50 [4] was > 100 µM (inactive), the GI50 [5] was > 100 µM (inactive) and the GI50 [6] was > 100 µM (inactive). The GI50 [7] was > 100 µM (inactive), the GI50 [8] was > 100 µM (inactive) and the GI50 [9] was > 100 µM (inactive). The GI50 [10] was > 100 µM (inactive), the GI50 [11] was > 100 µM (inactive) and the GI50 [12] was > 100 µM (inactive). For the same molecule, the GI50 [13] was > 100 µM (inactive), the GI50 [14] was > 100 µM (inactive) and the GI50 [15] was > 100 µM (inactive). The GI50 [16] was > 100 µM (inactive), the GI50 [53] was > 100 µM (inactive) and the GI50 [17] was > 100 µM (inactive). The GI50 [18] was > 100 µM (inactive), the GI50 [19] was > 100 µM (inactive) and the GI50 [20] was > 100 µM (inactive). The GI50 [21] was > 100 µM (inactive), the GI50 [54] was > 100 µM (inactive) and the GI50 [22] was > 100 µM (inactive). For the same molecule, the GI50 [23] was > 100 µM (inactive), the GI50 [25] was > 100 µM (inactive) and the GI50 [26] was > 100 µM (inactive). For the same molecule, the GI50 [55] was > 100 µM (inactive), the GI50 [27] was > 100 µM (inactive) and the GI50 [28] was > 100 µM (inactive). For the same molecule, the GI50 [29] was > 100 µM (inactive), the GI50 [30] was > 100 µM (inactive) and the GI50 [31] was > 100 µM (inactive). For the same molecule, the GI50 [32] was > 100 µM (inactive), the GI50 [33] was > 100 µM (inactive) and the GI50 [34] was > 100 µM (inactive). The GI50 [35] was > 100 µM (inactive), the GI50 [36] was 73.1 µM (inactive) and the GI50 [37] was > 100 µM (inactive). The GI50 [38] was > 100 µM (inactive), the GI50 [39] was > 100 µM (inactive) and the GI50 [40] was > 100 µM. The GI50 [41] was > 100 µM (inactive), the GI50 [42] was > 100 µM (inactive) and the GI50 [43] was > 100 µM (inactive). For the same molecule, the GI50 [44] was > 100 µM (inactive), the GI50 [45] was > 100 µM (inactive) and the GI50 [48] was > 100 µM (inactive). The GI50 [56] was > 100 µM (inactive), the GI50 [57] was > 100 µM (inactive) and the GI50 [49] was > 100 µM (inactive). The GI50 [58] was > 100 µM (inactive), the GI50 [50] was > 100 µM (inactive) and the GI50 [51] was > 100 µM (inactive). For the same molecule, the GI50 [52] was > 100 µM (inactive).

In the case of `O=C(/N=N/c1cc(Cl)ccc1Cl)NNc1cc(Cl)ccc1Cl`, the GI50 [2] is reported as 20 µM (inactive), the GI50 [3] is reported as 17.1 µM (inactive) and the GI50 [4] is reported as 13.7 µM (inactive). For the same molecule, the GI50 [5] was 18.4 µM (inactive), the GI50 [6] was 26.9 µM (inactive) and the GI50 [7] was 30.3 µM (inactive). The GI50 [8] was 22 µM (inactive), the GI50 [9] was 23.5 µM (inactive) and the GI50 [10] was 10.9 µM (inactive). For the same molecule, the GI50 [11] was 11.7 µM (inactive), the GI50 [12] was 15.7 µM (inactive) and the GI50 [59] was 13.6 µM (inactive). The GI50 [14] was 17.3 µM (inactive), the GI50 [15] was 4.41 µM (inactive) and the GI50 [16] was 12.7 µM (inactive). For the same molecule, the GI50 [53] was > 10 µM (inactive), the GI50 [18] was 10.5 µM (inactive) and the GI50 [19] was 26.8 µM (inactive). For the same molecule, the GI50 [20] was 17.6 µM (inactive), the GI50 [54] was 11.2 µM (inactive) and the GI50 [22] was 22.8 µM (inactive). For the same molecule, the GI50 [23] was > 10 µM (inactive), the GI50 [24] was 28.4 µM (inactive) and the GI50 [25] was > 10 µM (inactive). The GI50 [26] was 11.1 µM (inactive), the GI50 [55] was 30.3 µM (inactive) and the GI50 [27] was 16.7 µM (inactive). For the same molecule, the GI50 [29] was 18.1 µM (inactive), the GI50 [30] was 14.6 µM (inactive) and the GI50 [31] was 17.5 µM (inactive). For the same molecule, the GI50 [32] was 11.9 µM (inactive), the GI50 [33] was 17.3 µM (inactive) and the GI50 [35] was 15.2 µM (inactive). The GI50 [36] was 13.2 µM (inactive), the GI50 [37] was 25.4 µM (inactive) and the GI50 [40] was 16.5 µM. For the same molecule, the GI50 [42] was 21.2 µM (inactive), the GI50 [43] was 25.5 µM (inactive) and the GI50 [44] was 25.9 µM (inactive). For the same molecule, the GI50 [45] was 16.7 µM (inactive), the GI50 [47] was 16.8 µM (inactive) and the GI50 [48] was 18.6 µM (inactive). The GI50 [56] was 23.1 µM (inactive), the GI50 [57] was 21.8 µM (inactive) and the GI50 [49] was 19 µM (inactive). For the same molecule, the GI50 [58] was 21.4 µM (inactive), the GI50 [50] was > 10 µM (inactive) and the GI50 [52] was 16 µM (inactive).
